Laboratory results as given in PubChem BioAssay AID2060898 (Molecular Pharmacology Branch, DTP, NCI, 2025).
“And” between values parts separate entries of the source, which are not always exact repeats. Identical values can stand only once.

Test system: 616215-338-R-J1-PDC complex spheroid viability
Experiment: Anticancer human tumor 616215-338-R-J1-PDC patient-derived colon adenocarcinoma cell line growth inhibition [RAS]
Conditions: for viability, T/C: stronger effect = lower value
Outline: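 Multi-cell-type spheroids: tumor cells plus HUVEC endothelial cells and mesenchymal stem cells. RAS-pathway inhibitors were combined with targeted agents, each dosed in half-log steps down from clinical Cmax, or from 10 microM when Cmax was unknown.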

[1] = curve of first compound, second compound 0.0316 µM
[2] = curve of first compound, second compound 0.1 µM
[3] = curve of first compound, second compound 0.316 µM
[4] = curve of first compound, second compound 1 µM
[5] = second compound 0.0316 µM, first compound 0.0316 µM
[6] = second compound 0.0316 µM, first compound 0.1 µM
[7] = second compound 0.0316 µM, first compound 0.316 µM
[8] = second compound 0.0316 µM, first compound 1 µM
[9] = second compound 0.0316 µM, first compound 3.16 µM
[10] = second compound 0.0316 µM, first compound 10 µM
[11] = second compound 0.1 µM, first compound 0.0316 µM
[12] = second compound 0.1 µM, first compound 0.1 µM
[13] = second compound 0.1 µM, first compound 0.316 µM
[14] = second compound 0.1 µM, first compound 1 µM
[15] = second compound 0.1 µM, first compound 3.16 µM
[16] = second compound 0.1 µM, first compound 10 µM
[17] = second compound 0.316 µM, first compound 0.0316 µM
[18] = second compound 0.316 µM, first compound 0.1 µM
[19] = second compound 0.316 µM, first compound 0.316 µM
[20] = second compound 0.316 µM, first compound 1 µM
[21] = second compound 0.316 µM, first compound 3.16 µM
[22] = second compound 0.316 µM, first compound 10 µM
[23] = second compound 1 µM, first compound 0.0316 µM
[24] = second compound 1 µM, first compound 0.1 µM
[25] = second compound 1 µM, first compound 0.316 µM
[26] = second compound 1 µM, first compound 1 µM
[27] = second compound 1 µM, first compound 3.16 µM
[28] = second compound 1 µM, first compound 10 µM
[29] = curve of first compound, second compound 3.16 µM
[30] = curve of first compound, second compound 10 µM
[31] = second compound 3.16 µM, first compound 0.0316 µM
[32] = second compound 3.16 µM, first compound 0.1 µM
[33] = second compound 3.16 µM, first compound 0.316 µM
[34] = second compound 3.16 µM, first compound 1 µM
[35] = second compound 10 µM, first compound 0.0316 µM
[36] = second compound 10 µM, first compound 0.1 µM
[37] = second compound 10 µM, first compound 0.316 µM
[38] = second compound 10 µM, first compound 1 µM
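Also: spheroids exposed to agents for seven days before viability readout.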
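For viability, T/C in this document: 100% = DMSO vehicle control viability.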

Compound: NC1c2ccccc2OC12CCN(c1cnc3c(N4CCCc5ncccc54)n[nH]c3n1)CC2 (stereo not drawn) + C=CC(=O)N1CCN(c2nc(OCC3CCCN3C)nc3c(F)c(-c4nc(N)cc(C)c4C(F)(F)F)c(Cl)cc23)C(C)C1
- IC50 (curve of first compound, second compound 0.00316 µM): > 10000 nM
- IC50 (curve of first compound, second compound 0.01 µM): > 10000 nM
- IC50 [1]: > 10000 nM
- IC50 [2]: > 10000 nM
- IC50 [3]: > 10000 nM
- IC50 [4]: > 10000 nM
- viability, T/C (second compound 0.00316 µM, first compound 0.0316 µM): 119%
- viability, T/C (second compound 0.00316 µM, first compound 0.1 µM): 114%
- viability, T/C (second compound 0.00316 µM, first compound 0.316 µM): 81.2%
- viability, T/C (second compound 0.00316 µM, first compound 1 µM): 79.1%
- viability, T/C (second compound 0.00316 µM, first compound 3.16 µM): 58.7%
- viability, T/C (second compound 0.00316 µM, first compound 10 µM): 53.5%
- viability, T/C (second compound 0.01 µM, first compound 0.0316 µM): 134%
- viability, T/C (second compound 0.01 µM, first compound 0.1 µM): 104%
- viability, T/C (second compound 0.01 µM, first compound 0.316 µM): 95.4%
- viability, T/C (second compound 0.01 µM, first compound 1 µM): 80.5%
- viability, T/C (second compound 0.01 µM, first compound 3.16 µM): 83%
- viability, T/C (second compound 0.01 µM, first compound 10 µM): 64.2%
- viability, T/C [5]: 121%
- viability, T/C [6]: 113%
- viability, T/C [7]: 95.7%
- viability, T/C [8]: 74.9%
- viability, T/C [9]: 77.4%
- viability, T/C [10]: 60.6%
- viability, T/C [11]: 112%
- viability, T/C [12]: 110%
- viability, T/C [13]: 81.3%
- viability, T/C [14]: 93.4%
- viability, T/C [15]: 64.7%
- viability, T/C [16]: 62.1%
- viability, T/C [17]: 120%
- viability, T/C [18]: 112%
- viability, T/C [19]: 91.4%
- viability, T/C [20]: 74.3%
- viability, T/C [21]: 70.9%
- viability, T/C [22]: 52.3%
- viability, T/C [23]: 116%
- viability, T/C [24]: 101%
- viability, T/C [25]: 91.8%
- viability, T/C [26]: 83.6%
- viability, T/C [27]: 73%
- viability, T/C [28]: 62.3%

Compound: CC(C)n1nc(-c2ccc3oc(N)nc3c2)c2c(N)ncnc21
- viability, T/C (compound 0.000316 µM): 99.5% (2×) and 101% and 97.1%
- viability, T/C (compound 0.001 µM): 105% [middle of 4 runs]
- viability, T/C (compound 0.00316 µM): 94.6% and 107% (2×) and 98%
- viability, T/C (compound 0.01 µM): 107% [middle of 4 runs]
- viability, T/C (compound 0.0316 µM): 110% [middle of 4 runs]
- viability, T/C (compound 0.1 µM): 75.2% [middle of 4 runs]
- IC50 (curve of compound): > 100 nM

Compound: O=C(c1ccc(F)c(F)c1Nc1ccc(I)cc1F)N1CC(O)([C@@H]2CCCCN2)C1 + C#Cc1c(F)ccc2cc(O)cc(-c3ncc4c(N5CC6CCC(C5)N6)nc(OCC56CCCN5CC(F)C6)nc4c3F)c12
- IC50 [1]: 87.7 nM
- IC50 [2]: 75.4 nM
- IC50 [3]: 55.9 nM
- IC50 [4]: 30.5 nM
- IC50 [29]: 19 nM
- IC50 [30]: < 3.16 nM
- viability, T/C (second compound 0.0316 µM, first compound 0.00316 µM): 112%
- viability, T/C (second compound 0.0316 µM, first compound 0.01 µM): 98%
- viability, T/C [5]: 83.8%
- viability, T/C [6]: 47.4%
- viability, T/C [7]: 12.5%
- viability, T/C [8]: 5.72%
- viability, T/C (second compound 0.1 µM, first compound 0.00316 µM): 114%
- viability, T/C (second compound 0.1 µM, first compound 0.01 µM): 112%
- viability, T/C [11]: 85.1%
- viability, T/C [12]: 39.3%
- viability, T/C [13]: 10%
- viability, T/C [14]: 6.39%
- viability, T/C (second compound 0.316 µM, first compound 0.00316 µM): 124%
- viability, T/C (second compound 0.316 µM, first compound 0.01 µM): 111%
- viability, T/C [17]: 73.6%
- viability, T/C [18]: 25.3%
- viability, T/C [19]: 13%
- viability, T/C [20]: 5.14%
- viability, T/C (second compound 1 µM, first compound 0.00316 µM): 115%
- viability, T/C (second compound 1 µM, first compound 0.01 µM): 96.3%
- viability, T/C [23]: 44.3%
- viability, T/C [24]: 24.3%
- viability, T/C [25]: 8.74%
- viability, T/C [26]: 5.44%
- viability, T/C (second compound 3.16 µM, first compound 0.00316 µM): 75.3%
- viability, T/C (second compound 3.16 µM, first compound 0.01 µM): 64.9%
- viability, T/C [31]: 36.6%
- viability, T/C [32]: 23.4%
- viability, T/C [33]: 7.41%
- viability, T/C [34]: 3.17%
- viability, T/C (second compound 10 µM, first compound 0.00316 µM): 48.8%
- viability, T/C (second compound 10 µM, first compound 0.01 µM): 35.3%
- viability, T/C [35]: 24.3%
- viability, T/C [36]: 14.4%
- viability, T/C [37]: 1.94%
- viability, T/C [38]: 1.77%

Compound: C[C@@H](NC(=O)c1ncnc(N)c1Cl)c1ncc(C(=O)Nc2cc(C(F)(F)F)c(Cl)cn2)s1 + C#Cc1c(F)ccc2cc(O)cc(-c3ncc4c(N5CC6CCC(C5)N6)nc(OCC56CCCN5CC(F)C6)nc4c3F)c12
- IC50 [1]: > 10000 nM
- IC50 [2]: > 10000 nM
- IC50 [3]: 9710 nM
- IC50 [4]: 5990 nM
- IC50 [29]: 3610 nM
- IC50 [30]: 758 nM
- viability, T/C [5]: 120%
- viability, T/C [6]: 109%
- viability, T/C [7]: 109%
- viability, T/C [8]: 109%
- viability, T/C [9]: 86.8%
- viability, T/C [10]: 55.2%
- viability, T/C [11]: 104%
- viability, T/C [12]: 111%
- viability, T/C [13]: 108%
- viability, T/C [14]: 109%
- viability, T/C [15]: 90.8%
- viability, T/C [16]: 52.2%
- viability, T/C [17]: 111%
- viability, T/C [18]: 113%
- viability, T/C [19]: 121%
- viability, T/C [20]: 117%
- viability, T/C [21]: 87.9%
- viability, T/C [22]: 49%
- viability, T/C [23]: 109%
- viability, T/C [24]: 112%
- viability, T/C [25]: 108%
- viability, T/C [26]: 91.5%
- viability, T/C [27]: 68.3%
- viability, T/C [28]: 35.8%
- viability, T/C [31]: 99.3%
- viability, T/C [32]: 111%
- viability, T/C [33]: 72.3%
- viability, T/C [34]: 82.2%
- viability, T/C (second compound 3.16 µM, first compound 3.16 µM): 52.2%
- viability, T/C (second compound 3.16 µM, first compound 10 µM): 24.3%
- viability, T/C [35]: 84.3%
- viability, T/C [36]: 69.7%
- viability, T/C [37]: 67.2%
- viability, T/C [38]: 46.4%
- viability, T/C (second compound 10 µM, first compound 3.16 µM): 24.8%
- viability, T/C (second compound 10 µM, first compound 10 µM): 18.7%
